According to patent US5461057A, “Hydro-ethano-indeno-pyridines” (priority 1994, dated 1995):

Experiments:
ICAM-1 = molecular target: T1, ICAM-1 (Homo sapiens, UniProt P05362); experiment: HL-60 cell adhesion to recombinant soluble ICAM-1; format: cell-based; settings: HL-60 cells
T1 construct: recombinant soluble ICAM-1 (2 μg/well)
Description: For measurement of cell adhesion to ICAM-1, HL-60 human leukemia cells were induced to differentiate in the presence of DMSO for 6 days. Adhesion of DMSO-differentiated HL-60 cells to recombinant soluble ICAM-1 (2 μg/well) was measured as described above for LOX cell adhesion, except that the adhesion was allowed to proceed for 30 minutes, rather than 1 hour, at 37° C.
ICAM-1 is a cell surface adhesion molecule that participates in cell-cell adhesion interactions, rather than cell-matrix adhesion interactions.

[1] = test system: LOX human melanoma cell adhesion to murine laminin; experiment: LOX cell adhesion to laminin; format: cell-based; settings: read-out: Laminin IC50
Description: (§1) Adhesion assays were run essentially as described previously (Pai et al., J. Biomed. Res. 2: 53, 1992). 96-well plates were coated with human fibronectin (140 ng/well), human vitronectin (75 ng/well), human collagen I (100 ng/well), human collagen IV (100 ng/well), human fibrinogen (1 μg/well), murine laminin (600 ng/well), or polylysine, and incubated overnight in a humidified 37° C. incubator. Excess fibronectin or other substrate was then removed and 0.2 ml of 2 mg/ml bovine serum albumin (BSA)in Dulbecco's phosphate-buffered saline (DPBS) was added to each well, incubated for 2 hours at 37° C., and removed. LOX human melanoma cells, M27 murine lung carcinoma cells or B16F10 mouse melanoma cells were detached from tissue culture flasks with RPMI medium containing 0.2M urea and 10 mM EDTA, and 0.18 ml of cells were added to each well to a final cell concentration of 1×10^5 cells/well. For inhibition studies 20 μl of 10× compound was added to the wells prior to cell addition. Cells were allowed to adhere for 1 hour at 37° C. The wells were then gently washed twice with 0.2 ml DPBS. The fluorescent dye calcein AM (Molecular Probes, Eugene Oreg.) in DPBS (0.1 ml of 1 μM) was added to each well, and the plates were incubated for 1 hour at room temperature. Adherent cells were quantitated by reading the fluorescence on a Cytofluor 2300 fluorescent plate reader (Millipore) at 485 nm excitation and 530 nm emission.

[2] = test system: histamine-induced dyspnea; experiment: Bronchodilator (in vivo) Guinea Pig Dyspnea; settings: oral, one hour before histamine challenge
Summary of the method: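 Fasted, unanesthetized guinea pigs (250-350 g) received the test drug orally one hour before exposure to an aerosolized 0.1% histamine solution. Onset of dyspnea was recorded, and data were expressed as number tested over number survived.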

[3] = test system: M27 murine lung carcinoma cell adhesion to fibronectin; experiment: M27 lung carcinoma cell adhesion to fibronectin; format: cell-based; settings: Mus musculus; read-out: M27 FN IC50
Description: as §1

[4] = test system: LOX human melanoma cell adhesion to human collagen I; experiment: LOX cell adhesion to collagen I; format: cell-based; settings: read-out: Collagen I IC50
Description: as §1

[5] = test system: LOX human melanoma cell adhesion to human vitronectin; experiment: LOX cell adhesion to vitronectin; format: cell-based; settings: read-out: Vitronectin IC50
Description: as §1

PDGF receptor = PDGF receptor binding assay
[6] = test system: acetic acid-induced writhing; experiment: Acetic Acid Writhing Test in Mice; format: in vivo, mouse; settings: Mus musculus, po, read-out: WRITH ED50
Excerpt: The blockade of writhing induced by the intraperitoneal injection of acetic acid is an established experimental animal model for the screening of antinociceptive drugs (drugs which prevent the appreciation or transmission of pain sensations).
The procedure for the Acetic Acid Writhing Test in Mice is set forth in Hendershot et al, J. Pharmacol. Exp. Therap. 125:237, (1959); Koster et al., Fed. Proc. 18:412, (1959); and international application PCT/US91/06705, filed 20 Sep. 1991, which are hereby incorporated by reference.
The results for this test are given below in the units of mg/kg which is also abbreviated in this specification as mpk. The results for this test are given as effective doses (ED50 's).

metrazole = experiment: Anti-metrazole test in mice; format: in vivo, mouse; settings: Mus musculus, read-out: MTZ ED50
Description: The anti-metrazole test in mice was carried out as described in Everett et al, J. Pharmacol. Exp. Therap. 81:402-407 (1944); which is hereby incorporated by reference.
The results for this test are given below as ED50's in the units of mg/kg.

[7] = test system: B16-F10 murine melanoma metastasis; experiment: In vivo experimental metastasis; set-up: species or system mouse (C57/black6); settings: 150 mpk i.p.
Description: C57/black6 female mice (6-7 weeks old) were randomized before any treatment into groups of 5 mice per treatment. Compounds of the invention were prepared as a fine suspension in 25% β-cyclodextran and administered i.p. in a volume of 0.2 ml per animal. Two hours after drug (or vehicle) injection, 0.2 ml of DPBS containing 1×10^5 B-16 F10 murine melanoma cells were injected i.v. into the tail vein. After 14 days, animals were sacrificed and lungs were removed. Metastatic lung colonies were counted by visual inspection.
*Pretreatment Time is the time between i.p. drug injection and i.v. tumor

pulmonary resistance = experiment: Pulmonary Resistance in the Anesthetized Rat; format: in vivo; settings: 0.5 mpk, i.v.; mean of 5 animals; % decrease in pre-drug baseline resistance
Summary of the method: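 Dialurethane-anesthetized rats (400-500 g) with tracheal and esophageal catheters; air flow and tracheal/esophageal pressures used to derive pulmonary resistance. Compounds given i.v. to 5 animals each; values are mean % decrease from pre-drug baseline resistance.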

T1 sequence (P05362 28-480 limits assumed): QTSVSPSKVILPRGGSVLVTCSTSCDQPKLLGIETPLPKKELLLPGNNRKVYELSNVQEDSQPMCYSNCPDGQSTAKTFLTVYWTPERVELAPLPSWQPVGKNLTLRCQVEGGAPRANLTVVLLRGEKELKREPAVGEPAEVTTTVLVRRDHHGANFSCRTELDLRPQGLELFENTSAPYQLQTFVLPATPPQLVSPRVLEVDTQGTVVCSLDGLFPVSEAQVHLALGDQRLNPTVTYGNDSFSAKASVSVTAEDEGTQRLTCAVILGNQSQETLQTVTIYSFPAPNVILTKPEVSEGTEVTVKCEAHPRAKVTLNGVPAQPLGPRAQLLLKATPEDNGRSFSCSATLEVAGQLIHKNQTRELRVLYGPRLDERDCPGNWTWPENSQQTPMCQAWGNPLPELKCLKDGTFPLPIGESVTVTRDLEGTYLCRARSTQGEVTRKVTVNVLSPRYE

SMILES | IC50 (ICAM-1) [µM] | IC50 [1] [µM] | DYSP survivors ([2]; 100 mg/kg) | IC50 [3] [µM] | IC50 [4] [µM] | IC50 [5] [µM] | inhibition of PDGF binding (PDGF receptor) | responders at 100 mg/kg ([2]; Cavia porcellus, 1 h, 100 mg/kg, read-out: DYSP survivors (converted)) [%] | ED50 [6] [mg/kg] | ED50 (metrazole) [mg/kg] | inhibition of in vivo metastasis relative to vehicle control ([7]; 2 hours before i.v. injection of melanoma) [%] | % Inhibition of lung metastasis ([7]; pretreatment time 30 min) [%] | Number of Lung Melanoma Colonies ([7]; pretreatment time 30 min) | % Inhibition of lung metastasis ([7]; pretreatment time 120 min) [%] | Number of Lung Melanoma Colonies ([7]; pretreatment time 120 min) | DYSP survivors ([2]; 10 mg/kg) | DYSP survivors ([2]; 50 mg/kg) | Pulmonary Resistance in Rats, % Inhibition (pulmonary resistance) [%]
CN1C2CCC1C1C(=C(c3ccc(Cl)cc3)c3ccccc31)C2 (centres unmarked) [C] | 24.8 | 3.5 | 0/3 | 13.7 | 4 | 5.9 | – | – | – | – | – | – | – | – | – | – | – | –
COc1ccc(C2=C3CC4CCC(N4)C3c3ccccc32)cc1 (centres unmarked) [Compound B] | > 50 | 7.7 | – | 17.1 | 6.7 | 16.8 | not to inhibit PDGF binding directly | 0 | > 30 | > 30 | 73 | 55.7 | 35.2 ± 13.9 | 72.5 | 21.8 ± 2.0 | – | – | –
Cc1ccc(C2=C3CC4CCC(C3c3ccccc32)N4C)cc1 (centres unmarked) [J] | > 50 | 2.5 | 3/3 | 17.9 | 4.5 | 12.8 | – | – | – | – | – | – | – | – | – | 0/3 | 1/3 | 35
